# Results from patent US20260297081A1, “COMPOUNDS AND METHODS OF TREATING CANCERS” (Cullgen Inc., priority 2023, published 2026).
# Legend:
# Type in all cases: cell-based
# CDK4 [1] = biological target: T1, CDK4 (Homo sapiens, UniProt P11802+Q16531); assay: CDK4 percentage degradation in Calu-1 cells (Table 6); design: Cells that express cyclin D1-3 and CDK4/6 proteins were treated with heterobifunctional compounds; endogenous in cells; host or cells: Calu-1; settings: 16 hours; for inhibition at 0.04 µM: 40 nM; for inhibition at 0.2 µM: 200 nM
# Procedure, shortened: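 Calu-1 cells exposed to heterobifunctional compounds at 40 nM or 200 nM for 16 h. Cyclin D1 and CDK4 levels measured by Western blot of RIPA lysates (BCA-normalised loading), bands quantified by densitometry and expressed as percentage degradation.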
# Target sequence in this assay (P11802 2-303 limits assumed): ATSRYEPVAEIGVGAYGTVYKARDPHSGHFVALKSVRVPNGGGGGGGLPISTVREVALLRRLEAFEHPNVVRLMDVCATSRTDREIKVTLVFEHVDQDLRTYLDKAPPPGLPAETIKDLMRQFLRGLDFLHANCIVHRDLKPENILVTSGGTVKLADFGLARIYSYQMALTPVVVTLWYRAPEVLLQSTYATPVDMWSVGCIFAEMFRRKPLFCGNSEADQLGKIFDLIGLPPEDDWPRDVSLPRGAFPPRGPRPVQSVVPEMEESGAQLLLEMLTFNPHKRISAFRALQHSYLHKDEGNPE
# Target sequence in this assay (P24385 whole entry partner): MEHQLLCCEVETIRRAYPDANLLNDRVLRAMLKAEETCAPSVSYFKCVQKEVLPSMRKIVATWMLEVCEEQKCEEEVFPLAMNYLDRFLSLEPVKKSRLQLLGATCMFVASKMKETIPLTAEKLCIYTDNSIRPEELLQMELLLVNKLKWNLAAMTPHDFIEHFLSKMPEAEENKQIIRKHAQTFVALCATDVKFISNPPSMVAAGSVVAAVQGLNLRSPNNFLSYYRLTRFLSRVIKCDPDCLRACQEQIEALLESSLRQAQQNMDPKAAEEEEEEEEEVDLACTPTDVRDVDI
# Target sequence in this assay (Q16531 2-1140 limits assumed): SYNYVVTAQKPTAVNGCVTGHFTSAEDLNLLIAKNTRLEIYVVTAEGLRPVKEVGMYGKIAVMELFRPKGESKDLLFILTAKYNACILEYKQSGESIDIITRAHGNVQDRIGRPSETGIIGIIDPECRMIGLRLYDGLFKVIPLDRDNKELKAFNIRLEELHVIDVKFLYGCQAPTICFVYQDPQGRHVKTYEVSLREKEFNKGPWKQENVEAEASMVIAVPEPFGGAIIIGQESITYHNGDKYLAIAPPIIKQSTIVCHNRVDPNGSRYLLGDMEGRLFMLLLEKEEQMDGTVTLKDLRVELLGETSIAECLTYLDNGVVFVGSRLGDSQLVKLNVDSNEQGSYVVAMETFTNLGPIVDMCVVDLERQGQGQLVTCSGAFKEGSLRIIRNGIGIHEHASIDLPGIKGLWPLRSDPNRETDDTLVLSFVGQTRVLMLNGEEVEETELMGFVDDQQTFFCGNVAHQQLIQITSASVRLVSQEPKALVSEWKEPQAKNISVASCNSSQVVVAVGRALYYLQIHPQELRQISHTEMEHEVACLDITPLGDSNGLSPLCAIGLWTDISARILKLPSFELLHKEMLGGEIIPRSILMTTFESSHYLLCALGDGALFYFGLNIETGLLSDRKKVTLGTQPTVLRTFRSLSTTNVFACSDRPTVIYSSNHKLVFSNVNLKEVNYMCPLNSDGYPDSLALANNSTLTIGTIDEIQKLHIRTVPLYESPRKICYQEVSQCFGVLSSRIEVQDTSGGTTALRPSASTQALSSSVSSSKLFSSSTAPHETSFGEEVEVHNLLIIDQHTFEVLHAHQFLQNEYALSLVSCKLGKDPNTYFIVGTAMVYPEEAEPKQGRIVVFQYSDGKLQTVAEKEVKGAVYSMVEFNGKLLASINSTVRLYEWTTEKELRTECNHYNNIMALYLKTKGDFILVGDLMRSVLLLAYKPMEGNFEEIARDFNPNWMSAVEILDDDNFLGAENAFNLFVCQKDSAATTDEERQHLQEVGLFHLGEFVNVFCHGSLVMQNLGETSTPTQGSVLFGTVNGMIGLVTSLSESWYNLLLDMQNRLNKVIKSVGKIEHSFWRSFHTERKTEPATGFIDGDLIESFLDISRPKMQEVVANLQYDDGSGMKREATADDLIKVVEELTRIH
# T47D cells = assay: Anti-proliferation (viability) of ER+ breast cancer T47D cells, 6 days (Table 7, FIG. 2B); settings: Homo sapiens, 144 h; T47D cells, 6 days, 10-point serial dilution; read-out: GI IC50 in T47D
# Procedure: To evaluate anti-proliferation activities of heterobifunctional compounds, NSCLC Calu-1 or ER+ breast cancer T47D cells were treated with selected heterobifunctional compounds following a 10-point serial dilution for 3 or 6 days, respectively.
# To verify that heterobifunctional compound-mediated degradation is dependent on the binding to CDK4-cyclin D complex, a negative control compound, CPD-143, which is derived from active heterobifunctional compound CPD-10 was designed. CPD-143 bears the same DDB1 ligand and linker as CPD-10 but with a modified warhead to impair the binding of the control compound to CDK4.
# MCF7 cells = assay: Anti-proliferation (viability) of MCF7 cells (Table 7, FIG. 2B); settings: Homo sapiens, MCF7, MCF7 cells, 3-6 days, 10-point serial dilution; read-out: GI IC50 in MCF-7
# CDK4 [2] = biological target: T1, CDK4; assay: HiBiT detection of HiBiT-tagged CDK4 protein level in MCF7 cells, 16 hours (Table 8); design: expressed in transfected cells; host or cells: MCF7; settings: MCF7 cells stably expressing HiBiT tagged target proteins; for activity at 0.01 µM: 10 nM, read-out: % CDK4 Relative Level (10 nM); for activity at 0.1 µM: 100 nM, read-out: % CDK4 Relative Level (100 nM)
# Procedure: HiBiT detection system quantitatively measures total amounts of HiBiT-tagged proteins using a luminescent based method. MCF7 cells stably expressing HiBiT tagged target proteins were treated with heterobifunctional compounds at indicated concentrations for 16 hours, then lysed with Nano-Glo HiBiT Lytic detection reagents.
# Target sequence in this assay (P11802 whole entry): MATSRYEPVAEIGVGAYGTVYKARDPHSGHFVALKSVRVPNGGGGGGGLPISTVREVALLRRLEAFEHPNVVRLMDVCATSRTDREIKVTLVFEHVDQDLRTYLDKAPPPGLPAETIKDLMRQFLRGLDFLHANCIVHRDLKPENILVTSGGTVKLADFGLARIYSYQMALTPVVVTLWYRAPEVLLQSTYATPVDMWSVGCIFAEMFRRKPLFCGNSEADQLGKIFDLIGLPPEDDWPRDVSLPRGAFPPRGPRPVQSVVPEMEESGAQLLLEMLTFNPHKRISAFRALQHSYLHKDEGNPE
# Target sequence in this assay (P24385 whole entry partner): as the sequence (P24385 whole entry partner) above
# Target sequence in this assay (Q16531 2-1140 limits assumed): as the sequence (Q16531 2-1140 limits assumed) above
# Calu-1 cells = assay: Anti-proliferation (viability) of NSCLC Calu-1 cells, 3 days (Table 7, FIG. 2B); settings: Homo sapiens, 72 h; Calu-1 cells, 3 days, 10-point serial dilution; read-out: GI IC50 in Calu-1
# Procedure, shortened: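 Treatment length differs by line: Calu-1 cells receive degrader for 3 days, T47D cells for 6 days, each over a 10-point dilution series. A warhead-modified analogue with unchanged DDB1 binder and linker served as the non-CDK4-binding control.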
inhibition at 0.04 µM (CDK4 [1]) [%],inhibition at 0.2 µM (CDK4 [1]) [%],IC50 (T47D cells) [nM],IC50 (MCF7 cells) [nM],activity at 0.01 µM (CDK4 [2]) [%],activity at 0.1 µM (CDK4 [2]) [%],IC50 (Calu-1 cells) [nM],Structure (SMILES)
30 to 50,50 to 80,≥ 100,–,–,–,–,"CC(=O)c1c(C)c2cnc(Nc3ccc(N4CCN(CC(=O)NCC5CC(Nc6nc(C)ccc6C(=O)Nc6cc(C)n(C)n6)C5)CC4)cn3)nc2n(C2CCCC2)c1=O (stereo not drawn) [CPD-209, 2-((3-((2-(4-(6-((6-acetyl-8-cyclopentyl-5-methyl-7-oxo-7,8-dihydropyrido[2,3-d]pyrimidin-2-yl)amino)pyridin-3-yl)piperazin-1-yl)acetamido)methyl)cyclobutyl)amino)-N-(1,5-dimethyl-1H-pyrazol-3-yl)-6-methylnicotinamide]"
50 to 80,50 to 80,50 to 100,50 to 100,–,–,–,"CNc1ccc(C(=O)Nc2ccc(N(C)C)nn2)c(NC2CCN(C(=O)CCN3CCN(c4ccc(Nc5ncc6c(C)c(C(C)=O)c(=O)n(C7CCCC7)c6n5)nc4)CC3)C2)n1 (stereo not drawn) [CPD-218, 2-((1-(3-(4-(6-((6-acetyl-8-cyclopentyl-5-methyl-7-oxo-7,8-dihydropyrido[2,3-d]pyrimidin-2-yl)amino)pyridin-3-yl)piperazin-1-yl)propanoyl)pyrrolidin-3-yl)amino)-N-(6-(dimethylamino)pyridazin-3-yl)-6-(methylamino)nicotinamide]"
50 to 80,50 to 80,50 to 100,50 to 100,–,–,–,"CNc1ccc(C(=O)Nc2ccc(N(C)C)nn2)c(NC2CCC(NC(=O)CN3CCN(c4ccc(Nc5ncc6c(C)c(C(C)=O)c(=O)n(C7CCCC7)c6n5)nc4)CC3)C2)n1 (stereo not drawn) [CPD-219, 2-((3-(2-(4-(6-((6-acetyl-8-cyclopentyl-5-methyl-7-oxo-7,8-dihydropyrido[2,3-d]pyrimidin-2-yl)amino)pyridin-3-yl)piperazin-1-yl)acetamido)cyclopentyl)amino)-N-(6-(dimethylamino)pyridazin-3-yl)-6-(methylamino)nicotinamide]"
50 to 80,50 to 80,≤ 50,50 to 100,–,–,–,"CC(=O)c1c(C)c2cnc(Nc3ccc(N4CCN(CC(=O)NC5CC6(C5)CC(Nc5nc(NC(C)C)ccc5C(=O)Nc5cn(C)c(C7CC7)n5)C6)CC4)cn3)nc2n(C2CCCC2)c1=O (stereo not drawn) [CPD-222, 2-((6-(2-(4-(6-((6-acetyl-8-cyclopentyl-5-methyl-7-oxo-7,8-dihydropyrido[2,3-d]pyrimidin-2-yl)amino)pyridin-3-yl)piperazin-1-yl)acetamido)spiro[3.3]heptan-2-yl)amino)-N-(2-cyclopropyl-1-methyl-1H-imidazol-4-yl)-6-(isopropylamino)nicotinamide]"
–,–,≥ 100,–,–,–,–,"[2H]C([2H])([2H])Nc1ccc(C(=O)Nc2cccc(C3CC3)n2)c(NC2CCN(C(=O)CN3CCN(c4ccc(Nc5ncc6c(C)c(C(C)=O)c(=O)n(C7CCCC7)c6n5)nc4)CC3)CC2)n1 [CPD-252, 2-((1-(2-(4-(6-((6-acetyl-8-cyclopentyl-5-methyl-7-oxo-7,8-dihydropyrido[2,3-d]pyrimidin-2-yl)amino)pyridin-3-yl)piperazin-1-yl)acetyl)piperidin-4-yl)amino)-N-(6-cyclopropylpyridin-2-yl)-6-((methyl-d3)amino)nicotinamide]"
–,–,≥ 100,> 100,–,–,–,"CNc1ccc(C(=O)Nc2cn(C)c(C3CC3)n2)c(NC2CC(CNC(=O)CN3CCN(c4ccc(Nc5ncc6c(C)c(C(C)=O)c(=O)n(C7CCCC7)c6n5)nc4)CC3)C2)n1 (stereo not drawn) [CPD-254, 2-((3-((2-(4-(6-((6-acetyl-8-cyclopentyl-5-methyl-7-oxo-7,8-dihydropyrido[2,3-d]pyrimidin-2-yl)amino)pyridin-3-yl)piperazin-1-yl)acetamido)methyl)cyclobutyl)amino)-N-(2-cyclopropyl-1-methyl-1H-imidazol-4-yl)-6-(methylamino)nicotinamide]"
–,–,≥ 100,–,–,–,–,"CC(=O)c1c(C)c2cnc(Nc3ccc(N4CCN(CC(=O)NCC5CC(Nc6c(F)cccc6C(=O)Nc6cc(C)n(C)n6)C5)CC4)cn3)nc2n(C2CCCC2)c1=O (stereo not drawn) [CPD-265, 2-((3-((2-(4-(6-((6-acetyl-8-cyclopentyl-5-methyl-7-oxo-7,8-dihydropyrido[2,3-d]pyrimidin-2-yl)amino)pyridin-3-yl)piperazin-1-yl)acetamido)methyl)cyclobutyl)amino)-N-(1,5-dimethyl-1H-pyrazol-3-yl)-3-fluorobenzamide]"
–,–,≥ 100,–,–,–,–,"CC(=O)c1c(C)c2cnc(Nc3ccc(N4CCN(CC(=O)NCC5CC(Nc6c(C(=O)Nc7cc(C)n(C)n7)cccc6C(F)(F)F)C5)CC4)cn3)nc2n(C2CCCC2)c1=O (stereo not drawn) [CPD-266, 2-((3-((2-(4-(6-((6-acetyl-8-cyclopentyl-5-methyl-7-oxo-7,8-dihydropyrido[2,3-d]pyrimidin-2-yl)amino)pyridin-3-yl)piperazin-1-yl)acetamido)methyl)cyclobutyl)amino)-N-(1,5-dimethyl-1H-pyrazol-3-yl)-3-(trifluoromethyl)benzamide]"
< 30,< 30,–,< 50,55 to 85,55 to 85,≤ 10,"CC(=O)c1c(C)c2cnc(Nc3ccc(N4CCN(CC(=O)NCC5CC(Nc6nc(NC(C)C)ccc6C(=O)Nc6cc(C)on6)C5)CC4)cn3)nc2n(C2CCCC2)c1=O (stereo not drawn) [CPD-282, 2-((3-((2-(4-(6-((6-acetyl-8-cyclopentyl-5-methyl-7-oxo-7,8-dihydropyrido[2,3-d]pyrimidin-2-yl)amino)pyridin-3-yl)piperazin-1-yl)acetamido)methyl)cyclobutyl)amino)-6-(isopropylamino)-N-(5-methylisoxazol-3-yl)nicotinamide]"
–,–,–,< 50,> 85,55 to 85,≤ 10,"CC(=O)c1c(C)c2cnc(Nc3ccc(CN4CCN(CC(=O)N5CCC6(CC(Nc7nc(NC(C)C)ccc7C(=O)Nc7ccc(N(C)C)nn7)C6)C5)CC4)cn3)nc2n(C2CCCC2)c1=O (stereo not drawn) [CPD-570, 2-((6-(2-(4-((6-((6-acetyl-8-cyclopentyl-5-methyl-7-oxo-7,8-dihydropyrido[2,3-d]pyrimidin-2-yl)amino)pyridin-3-yl)methyl)piperazin-1-yl)acetyl)-6-azaspiro[3.4]octan-2-yl)amino)-N-(6-(dimethylamino)pyridazin-3-yl)-6-(isopropylamino)nicotinamide]"
–,–,–,< 50,55 to 85,55 to 85,≤ 10,"CC(=O)c1c(C)c2cnc(Nc3ccc(CN4CCN(CC(=O)NC5CC6(C5)CC(Nc5nc(NC(C)C)ccc5C(=O)Nc5cn(C)c(C7CC7)n5)C6)CC4)cn3)nc2n(C2CCCC2)c1=O (stereo not drawn) [CPD-589, 2-((6-(2-(4-((6-((6-acetyl-8-cyclopentyl-5-methyl-7-oxo-7,8-dihydropyrido[2,3-d]pyrimidin-2-yl)amino)pyridin-3-yl)methyl)piperazin-1-yl)acetamido)spiro[3.3]heptan-2-yl)amino)-N-(2-cyclopropyl-1-methyl-1H-imidazol-4-yl)-6-(isopropylamino)nicotinamide]"
–,–,–,< 50,55 to 85,55 to 85,≤ 10,"CC(=O)c1c(C)c2cnc(Nc3ccc(N4CCN(C5CCN(C(=O)C67CC(Nc8nc(NC(C)C)ccc8C(=O)Nc8cc9n(n8)CCC9)(C6)C7)C5)CC4)cn3)nc2n(C2CCCC2)c1=O (stereo not drawn) [CPD-592, 2-((3-(3-(4-(6-((6-acetyl-8-cyclopentyl-5-methyl-7-oxo-7,8-dihydropyrido[2,3-d]pyrimidin-2-yl)amino)pyridin-3-yl)piperazin-1-yl)pyrrolidine-1-carbonyl)bicyclo[1.1.1]pentan-1-yl)amino)-N-(5,6-dihydro-4H-pyrrolo[1,2-b]pyrazol-2-yl)-6-(isopropylamino)nicotinamide]"
–,–,–,> 100,> 85,> 85,≥ 50,"CNc1ccc(C(=O)Nc2ccc(N(C)C)nn2)c(NCCC(=O)N2CCN(c3ccc(Nc4ncc5cc(C(=O)N(C)C)n(C6CCCC6)c5n4)nc3)CC2)n1 [CPD-616, 7-cyclopentyl-2-((5-(4-(3-((3-((6-(dimethylamino)pyridazin-3-yl)carbamoyl)-6-(methylamino)pyridin-2-yl)amino)propanoyl)piperazin-1-yl)pyridin-2-yl)amino)-N,N-dimethyl-7H-pyrrolo[2,3-d]pyrimidine-6-carboxamide]"
